In US8946203B2, “Benzodioxane inhibitors of leukotriene production” (Boehringer Ingelheim International GmbH, priority 2012, dated 2015) one finds IC50 data, which are given here for 35 molecules.

Counter-ions that a name gives are not always drawn.

The target of the first experiment is T1, human LTA4 hydrolase (Homo sapiens, UniProt P09960).
T1 sequence (P09960 1-611): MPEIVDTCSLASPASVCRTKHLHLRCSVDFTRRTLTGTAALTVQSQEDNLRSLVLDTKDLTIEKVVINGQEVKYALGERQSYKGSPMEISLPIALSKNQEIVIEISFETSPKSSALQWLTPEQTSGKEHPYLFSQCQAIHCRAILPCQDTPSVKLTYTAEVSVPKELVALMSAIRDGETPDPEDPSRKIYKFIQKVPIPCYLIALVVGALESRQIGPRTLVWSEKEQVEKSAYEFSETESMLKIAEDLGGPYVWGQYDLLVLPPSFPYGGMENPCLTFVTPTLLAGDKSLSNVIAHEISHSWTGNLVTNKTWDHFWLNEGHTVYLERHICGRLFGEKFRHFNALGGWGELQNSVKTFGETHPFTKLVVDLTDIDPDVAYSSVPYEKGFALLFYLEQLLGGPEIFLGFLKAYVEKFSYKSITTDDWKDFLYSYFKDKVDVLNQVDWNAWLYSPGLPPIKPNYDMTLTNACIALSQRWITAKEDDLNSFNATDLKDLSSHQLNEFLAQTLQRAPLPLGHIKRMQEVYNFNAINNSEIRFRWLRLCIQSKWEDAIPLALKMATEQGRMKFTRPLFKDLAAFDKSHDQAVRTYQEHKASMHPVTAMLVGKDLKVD
In words: LTA4H Enzyme assay (cleavage of Arg-AMC, fluorescence). In kind it is biochemical.
Conditions: not given
The procedure:
The compounds of the invention are assessed for the ability to interact with human LTA4 hydrolase in an enzymatic assay that measures the ability of the enzyme to cleave the peptide bond of arginyl-aminomethylcoumarin (Arg-AMC). LTA4H Enzyme (1 nM final), Arg-AMC substrate (50 μM final), and compound are combined in a reaction buffer (50 mM Tris-HCl (pH 7.5), 100 mM KCl, 0.5% bovine serum albumin) at room temperature for 1 h. The formation of product is assessed by measuring the fluorescence of aminomethylcoumarin product (excitation wavelength 380 nm/emission wavelength 460 nm).
`CN(C)CCN(C)Cc1ccc([C@H]2COc3ccccc3O2)cc1` [Example 79, N-{4-[(2S)-2,3-dihydro-1,4-benzodioxin-2-yl]benzyl}-N,N′,N′-trimethylethane-1,2-diamine] returned an IC50 of 0.51 nM.

The experiment is the same for the next values; noted with them: LTA4H Enzyme 1 nM, Arg-AMC substrate 50 μM, room temperature 1 h, fluorescence; read-out: IC50 values of LTA4H Enzyme assay.
Regarding `CC(=O)N1CC[C@H](NCc2ccc([C@H]3COc4ccccc4O3)cc2)C1` [Example 65, 1-[(3S)-3-({4-[(2S)-2,3-dihydro-1,4-benzodioxin-2-yl]benzyl}amino)pyrrolidin-1-yl]ethanone], the IC50 is 1.15 nM.

As for `NC(=O)C1CCCN(Cc2ccc([C@H]3COc4cccnc4O3)cc2)C1` (stereo partly drawn) [Example 136, 1-{4-[(3S)-2,3-dihydro[1,4]dioxin[2,3-b]pyridin-3-yl]benzyl}piperidine-3-carboxamide], the IC50 was found to be 0.19 nM.

Turning to `O=S1(=O)CCCN1C1CCN(Cc2ccc([C@H]3COc4ccccc4O3)cc2)CC1` [Example 224, 1-[(S)-4-(2,3-Dihydro-benzo[1,4]dioxin-2-yl)-benzyl]-4-(1,1-dioxo-1λ^6-isothiazolidin-2-yl)-piperidine], the IC50 is 0.13 nM.

Take `CC(C)(C)NCc1ccc(C2COc3ccccc3O2)cc1` (racemic) [Example 23, N-[4-(2,3-dihydro-1,4-benzodioxin-2-yl)benzyl]-2-methylpropan-2-amine]: the IC50 worked out at 5.2 nM.

`NC(=O)[C@H]1CC[C@H](NCc2ccc([C@H]3COc4ccccc4O3)cc2)CC1` [Example 66, trans-4-({4-[(2S)-2,3-dihydro-1,4-benzodioxin-2-yl]benzyl}amino)cyclohexane-carboxamide]: the IC50 came to 1.79 nM.

Regarding `CN1CCCC2(CCN(Cc3ccc([C@H]4COc5ccccc5O4)cc3)CC2)C1=O` [Example 120, 9-{4-[(2S)-2,3-dihydro-1,4-benzodioxin-2-yl]benzyl}-2-methyl-2,9-diazaspiro[5.5]undecan-1-one], the IC50 was determined as 0.51 nM.

Turning to `CN1CCC(N(C)Cc2ccc([C@H]3COc4ccccc4O3)cc2)CC1` [Example 110, N-{4-[(2S)-2,3-dihydro-1,4-benzodioxin-2-yl]benzyl}-N,1-dimethylpiperidin-4-amine], the IC50 was 2.15 nM.

Regarding `c1cnc2c(c1)OC[C@@H](c1ccc(CN3CCOCC3)cc1)O2` [Example 205, (R)-3-(4-Morpholin-4-ylmethyl-phenyl)-2,3-dihydro-[1,4]dioxino[2,3-b]pyridine], the IC50 came out at 27.5 nM.

On to `OCC1CCN(Cc2ccc([C@H]3COc4ccccc4O3)cc2)CC1` [Example 90, (1-{4-[(2S)-2,3-dihydro-1,4-benzodioxin-2-yl]benzyl}piperidin-4-yl)methanol], for which the IC50 was 0.77 nM.

On to `CC(C)(C(=O)O)C1CCN(Cc2ccc([C@H]3COc4cccnc4O3)cc2)CC1` [Example 230, 2-{1-[(S)-4-(2,3-Dihydro-[1,4]dioxino[2,3-b]pyridin-3-yl)-benzyl]-piperidin-4-yl}-2-methyl-propionic acid formate salt], for which the IC50 stood at 1.24 nM.

For `O=C1NC(=O)C2(CCN(Cc3ccc(C4COc5ccccc5O4)cc3)CC2)N1` (racemic) [Example 35, 8-[4-(2,3-dihydro-1,4-benzodioxin-2-yl)benzyl]-1,3,8-triazaspiro[4.5]decan-2,4-dione], the 50% inhibitory concentration (IC50) was 0.26 nM.

As to `O=C1CCCN1CC1CCN(Cc2ccc(C3COc4ccccc4O3)cc2)CC1` (racemic) [Example 50, 1-({1-[4-(2,3-dihydro-1,4-benzodioxin-2-yl)benzyl]piperidin-4-yl}methyl)pyrrolidin-2-one], the half-inhibitory concentration (IC50) turned out to be 0.6 nM.

With `O[C@H]1CCN(Cc2ccc([C@H]3COc4ccccc4O3)cc2)C1` [Example 91, (3S)-1-{4-[(2S)-2,3-dihydro-1,4-benzodioxin-2-yl]benzyl}pyrrolidin-3-ol], the IC50 came to 0.54 nM.

Consider `COCC(C)NCc1ccc([C@H]2COc3ccccc3O2)cc1` (stereo partly drawn) [Example 72, N-{4-[(2S)-2,3-dihydro-1,4-benzodioxin-2-yl]benzyl}-1-methoxypropan-2-amine], for which the IC50 is 1.8 nM.

As for `O[C@H]1CCN(Cc2ccc([C@H]3COc4cccnc4O3)cc2)C1` [Example 147, (3S)-1-{4-[(3S)-2,3-dihydro[1,4]dioxino[2,3-b]pyridin-3-yl]benzyl}pyrrolidin-3-ol], the IC50 was determined as 0.35 nM.

Take `c1ccc2c(c1)OC[C@@H](c1ccc(CN3CCOCC3)cc1)O2` (single isomer, unassigned) [Example 199]: the IC50 turned out to be 40.1 nM.

Consider `CCN(Cc1ccc([C@H]2COc3ccccc3O2)cc1)Cc1cccc(C(=O)O)c1` [Example 238, 3-{[{4-[(2S)-2,3-dihydro-1,4-benzodioxin-2-yl]benzyl}(ethyl)amino]methyl}benzoic acid], for which the IC50 was 0.55 nM.

As for `O=C1NCCC12CCN(Cc1ccc([C@@H]3COc4ccccc4O3)cc1)CC2` (single isomer, unassigned) [Example 195], the IC50 was found to be 1.59 nM.

Consider `CN(C)C(=O)CC1CCN(Cc2ccc([C@H]3COc4cccnc4O3)cc2)CC1` [Example 171, 2-(1-{4-[(3S)-2,3-dihydro[1,4]dioxino[2,3-b]pyridin-3-yl]benzyl}piperidin-4-yl)-N,N-dimethylacetamide], for which the IC50 was determined as 0.45 nM.

On to `CC1(C(=O)O)CCN(Cc2ccc([C@H]3COc4ccccc4O3)cc2)CC1` [Example 211, 1-[(S)-4-(2,3-Dihydro-benzo[1,4]dioxin-2-yl)-benzyl]-4-methyl-piperidine-4-carboxylic acid], for which the 50% inhibitory concentration (IC50) came out at 0.69 nM.

Regarding `CS(=O)(=O)N1CCN(Cc2ccc([C@H]3COc4cccnc4O3)cc2)CC1` [Example 188, (3S)-3-(4-{[4-(methylsulfonyl)piperazin-1-yl]methyl}phenyl)-2,3-dihydro[1,4]dioxino[2,3-b]pyridine], the IC50 stood at 0.87 nM.

For `Oc1ccc2c(c1)CCN(Cc1ccc([C@H]3COc4ccccc4O3)cc1)C2` [Example 112, 2-{4-[(2S)-2,3-dihydro-1,4-benzodioxin-2-yl]benzyl}-1,2,3,4-tetrahydroisoquinolin-6-ol], the IC50 stood at 1.07 nM.

Turning to `CCCNCc1ccc([C@H]2COc3ccccc3O2)cc1` [Example 73, N-{4-[(2S)-2,3-dihydro-1,4-benzodioxin-2-yl]benzyl}propan-1-amine], the IC50 was 3.65 nM.

Regarding `O=S1(=O)CCN(Cc2ccc(C3COc4cccnc4O3)cc2)CC1` (racemic) [Example 17, 3-{4-[(1,1-dioxidothiomorpholin-4-yl)methyl]phenyl}-2,3-dihydro[1,4]dioxin[2,3-b]pyridine], the IC50 turned out to be 0.77 nM.

For the molecule `NC(=O)[C@H]1CCCC[C@H]1NCc1ccc([C@H]2COc3ccccc3O2)cc1` [Example 86, (1S,2R)-2-({4-[(2S)-2,3-dihydro-1,4-benzodioxin-2-yl]benzyl}amino)cyclohexane-carboxamide], the half-maximal inhibitory concentration (IC50) came out at 0.92 nM.

Turning to `O=C(O)C1CCCN(Cc2ccc(C3COc4ccccc4O3)cc2)C1` (racemic) [Example 113, 1-[4-(2,3-dihydro-1,4-benzodioxin-2-yl)benzyl]piperidine-3-carboxylic acid], the IC50 came out at 2.49 nM.

Take `CN(C)C(=O)C1CCN(Cc2ccc([C@H]3COc4ccccc4O3)cc2)CC1` [Example 8, 1-{4-[(2S)-2,3-dihydro-1,4-benzodioxin-2-yl]benzyl}-N,N-dimethylpiperidine-4-carboxamide]: the IC50 stood at 0.32 nM.

`O=S1(=O)CCN(Cc2ccc([C@H]3COc4cccnc4O3)cc2)CC1` [Example 161, (3S)-3-{4-[(1,1-dioxidothiomorpholin-4-yl)methyl]phenyl}-2,3-dihydro[1,4]dioxino[2,3-b]pyridine]: the IC50 is 0.41 nM.

On to `N#CC1CCN(Cc2ccc([C@H]3COc4ccccc4O3)cc2)CC1` [Example 177, 1-{4-[(2S)-2,3-dihydro-1,4-benzodioxin-2-yl]benzyl}piperidine-4-carbonitrile], for which the IC50 amounted to 1.45 nM.

`CC(C)(C)C(CC(=O)O)NCc1ccc([C@H]2COc3ccccc3O2)cc1` (stereo partly drawn) [Example 58, 3-({4-[(2S)-2,3-dihydro-1,4-benzodioxin-2-yl]benzyl}amino)-4,4-dimethylpentanoic acid]: the IC50 amounted to 1.36 nM.

As for `c1cnc2c(c1)OC[C@H](c1ccc(CN3CCCOCC3)cc1)O2` [Example 150, (3S)-3-[4-(1,4-oxazepan-4-ylmethyl)phenyl]-2,3-dihydro[1,4]dioxino[2,3-b]pyridine], the IC50 amounted to 0.21 nM.

In the case of `c1ccc2c(c1)OC[C@H](c1ccc(CNC3CCCOC3)cc1)O2` (stereo partly drawn) [Example 103, N-{4-[(2S)-2,3-dihydro-1,4-benzodioxin-2-yl]benzyl}tetrahydro-2H-pyran-3-amine], the IC50 came to 2.4 nM.

As to `O=C1CCCCN1C1CCN(Cc2ccc([C@H]3COc4ccccc4O3)cc2)CC1` [Example 94, 1′-{4-[(2S)-2,3-dihydro-1,4-benzodioxin-2-yl]benzyl}-1,4′-bipiperidin-2-one], the IC50 stood at 0.45 nM.

`F[C@H]1CCN(Cc2ccc(C3COc4ccccc4O3)cc2)C1` (mixture of isomers) [Example 115, (3S)-1-[4-(2,3-dihydro-1,4-benzodioxin-2-yl)benzyl]-3-fluoropyrrolidine]: the IC50 was determined as 3.03 nM.
